# Literature values in article PMC9610285 (Pharmaceutics, 2022).
# Test system: MAO-B
# Parameters: method as in earlier work
# Settings: main metabolite of rasagiline; cited from earlier work
compound,measurement,value
NC1CCc2ccccc21 (stereo not shown) [S1-1-aminoindane],MAO-B inhibition,not a MAO-B inhibitor
